Measured values published in patent publication US9428483B2, “Prodrug of fluorine-containing amino acid” (TAISHO PHARMACEUTICAL CO., LTD., priority 2012, dated 2016).

Experiments:
[1] = Test 2: generation of Compound (IV) in human hepatic microsomes; type: in vitro ADME; settings: human hepatic microsome
Procedure: A test to determine the percent generation of Compound (IV) in human and monkey hepatic microsomes was conducted for Inventive Compounds (I) in accordance with the following method. As a control for comparison, an ethyl ester form of Compound (IV) (Reference Example 1) was used.
A test compound was incubated (37° C.×15 min) in a 0.250 M phosphate buffer (pH 7.4) containing 69 mM KCl, together with a human hepatic microsome (Ms) fraction (Xenotech/H630B/lot, 0810472) or a monkey Ms fraction (BD Biosciences/452413/lot, 94518) in the presence of a NADPH generation system (0.16 mM NADP^+, 2.4 mM MgCl2, 1.5 mM glucose-6-phosphate). The final concentrations of the test compound and hepatic Ms protein were adjusted to 3 μM and 1 mg protein/mL, respectively. To the incubated reaction mixture, 2 volumes of DMSO was added, followed by stirring and centrifugation at 3000 rpm (4° C.×10 min) The resulting supernatant was subjected to analysis by a liquid chromatography-tandem mass spectrometry (LC-MS/MS) system. The lower quantitation limit was 0.3 μM for both the test compound and Compound (IV).

[2] = Test 5: plasma concentrations of Compound (IV) in monkey after oral administration; type: in vivo, cynomolgus monkeys
Procedure: A test to measure the plasma concentration of Compound (IV) upon oral administration of Compound (IV) and Inventive Compounds (I) was conducted in accordance with the following method.
Compound (IV) or Inventive Compounds (I) was orally administered to male cynomolgus monkeys (fed condition) at a dose of 4.92 μmol/kg (vehicle: 0.5% methyl cellulose (MC) solution; administered at a dose of 5 mL/kg).
Two and 4 hours after the oral administration, approximately 0.7 mL of blood was taken from the cephalic vein (anticoagulant: EDTA-2K). The plasma recovered by centrifugation (3000 rpm, 4° C.×10 min) was stored frozen at −80° C. until use for analysis. In the case of analysis, 50 μL of the plasma sample was thawed under cooling with ice and after adding 200 μL of a liquid acetonitrile/methanol mixture containing an internal standard substance, the resulting mixture was stirred and centrifuged (4° C.×10 min); the resulting supernatant was subjected to LC-MS/MS analysis. The lower quantitation limits of Inventive Compounds (I) and Compound (IV) were 1 ng/mL and 3 ng/mL, respectively.

[3] = Test 4: percent generation of Compound (IV) in human small intestine S9; type: in vitro ADME; settings: 3 μM, 1 mg protein/mL, 37° C. x 1 hr
Procedure: A test to determine the percent generation of Compound (IV) in human intestine S9 was conducted for Inventive Compounds (I) in accordance with the following method.
Inventive Compounds were incubated (37° C.×1 hr) in a 0.1 M phosphate buffer (pH 7.4) together with a human intestine S9 fraction (Xenotech, LLC/CP710571/Lot, 710571) in the presence of Mg^2+ (5 mM), Ca^2+ (5 mM) and Zn^2+ (0.1 mM). The final concentrations of each Inventive Compound and the small intestine S9 protein were adjusted to 3 μM and 1 mg protein/mL, respectively. To the incubated reaction mixture, 3 volumes of DMSO was added, followed by stirring and centrifugation at 3000 rpm (4° C.×10 min). The resulting supernatant was subjected to analysis by a liquid chromatography-tandem mass spectrometry (LC-MS/MS) system. The lower quantitation limit was 0.3 μM for both Inventive Compounds (I) and Compound (IV).
The LC-MS/MS system used in the measurement was equipped with Waters XBridge Amide (3.5 μm, 50 mm×4.6 mm I.D.), Waters Atlantis T3 (3 μm, 50 mm×4.6 mm I.D.), or Shimadzu Shim-pack XR-ODS (2.2 μm, 30 mm×3.0 mm I.D.) as a separation column. The mobile phase was a 0.1% formic acid/acetonitrile solution or a 0.1% formic acid/methanol solution (flow rate: 0.7-1.3 mL/min) and the analyte was eluted in a linear gradient mode. MS/MS detection of Inventive Compounds (I) and Compound (IV) was performed using an API4000 or Triple quad 5500 system with TurbolonSpray interface (both being products of AB SCIEX) in either a positive or negative ion detection mode. The percent generation of Compound (IV) in human small intestine S9 is shown in the following Table 6 with respect to Inventive Compounds.

[4] = Test 1: Solution Stability Test; type: physicochemical; settings: 37° C., one hour, about 50 μg/mL; for Compound's percent residue (%) pH 6.5: 20 mM phosphate buffer (pH 6.5); for Compound's percent residue (%) pH 1.2: hydrochloric acid solution (pH 1.2)
Procedure: Inventive Compounds (I) were tested for their stability in solutions simulating the gastric and small intestine's digestive fluids identified below.
The percent residues of Inventive Compounds (I) in a hydrochloric acid solution (pH 1.2) and 20 mM phosphate buffer (pH 6.5) were measured in accordance with the following test method.
A test compound was dissolved in a hydrochloric acid solution (pH 1.2) containing hydrochloric acid and sodium chloride or a 20 mM phosphate buffer (pH 6.5) containing disodium hydrogenphosphate, sodium dihydrogenphosphate and sodium chloride to prepare a solution with a concentration of about 50 μg/mL (near the solubility if undissolved). The solution was incubated at 37° C. for an hour and the compound's concentration before and after the incubation was quantified by high-performance liquid chromatography to calculate the percent residue of the compound.

[5] = test system: phencyclidine-elicited head-weaving behavior; settings: schizophrenia model; cited from earlier work
mGluR3 = mGluR3 (Homo sapiens, UniProt Q14832); settings: read-out: EC50 value for the agonistic activity for mGluR3; cited from earlier work
schizophrenia model rat = settings: cited from earlier work
[6] = test system: conditioned avoidance response; settings: schizophrenia model; cited from earlier work

mGluR3, sequence (Q14832 23-879): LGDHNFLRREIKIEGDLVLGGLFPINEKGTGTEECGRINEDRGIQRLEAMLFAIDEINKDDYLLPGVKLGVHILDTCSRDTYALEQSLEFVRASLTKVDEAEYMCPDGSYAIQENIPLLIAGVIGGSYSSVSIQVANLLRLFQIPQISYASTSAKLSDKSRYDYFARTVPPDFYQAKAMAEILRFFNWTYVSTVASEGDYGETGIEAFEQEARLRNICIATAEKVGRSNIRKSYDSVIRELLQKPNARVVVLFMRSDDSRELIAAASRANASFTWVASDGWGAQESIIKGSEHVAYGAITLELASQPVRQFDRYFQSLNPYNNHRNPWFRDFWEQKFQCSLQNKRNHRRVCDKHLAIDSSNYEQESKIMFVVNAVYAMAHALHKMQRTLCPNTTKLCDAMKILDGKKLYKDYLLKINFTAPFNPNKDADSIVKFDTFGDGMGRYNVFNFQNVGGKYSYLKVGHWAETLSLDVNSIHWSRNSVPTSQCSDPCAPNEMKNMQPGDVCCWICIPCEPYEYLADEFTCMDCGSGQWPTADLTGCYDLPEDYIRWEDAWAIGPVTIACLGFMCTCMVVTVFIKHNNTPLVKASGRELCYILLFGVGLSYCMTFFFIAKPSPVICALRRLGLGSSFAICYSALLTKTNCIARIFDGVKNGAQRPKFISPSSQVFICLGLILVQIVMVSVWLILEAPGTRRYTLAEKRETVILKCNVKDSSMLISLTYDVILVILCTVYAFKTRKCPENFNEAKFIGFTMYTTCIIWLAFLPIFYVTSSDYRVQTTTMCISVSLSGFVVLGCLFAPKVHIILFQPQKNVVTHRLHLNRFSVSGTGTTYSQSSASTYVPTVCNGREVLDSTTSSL

Structure (SMILES) | Percent generation (%) of Compound IV in human small intestine S9 [3] [%] | Compound's percent residue (%) pH 6.5 [4] [%] | Compound's percent residue (%) pH 1.2 [4] [%] | further results
CCOC(=O)[C@H]1[C@@H]2C[C@H](F)[C@@](N)(C(=O)O)[C@@H]21 [Ref. Ex. 1, (1S,2S,3S,5R,6S)-2-amino-6-(ethoxycarbonyl)-3-fluorobicyclo[3.1.0]hexane-2-carboxylic acid] | – | – | – | test compound remaining unchanged [1]: approximately 100%
N[C@]1(C(=O)O)[C@H]2[C@@H](C[C@@H]1F)[C@@H]2C(=O)O [Compound IV, (1S,2S,3S,5R,6S)-2-amino-3-fluorobicyclo[3.1.0]hexane-2,6-dicarboxylic acid] | – | – | – | effect on phencyclidine-elicited head-weaving behavior [5]: has the effect of suppressing; EC50 (mGluR3): 45.4 nM; oral absorbability ([2]; in monkeys): poor; ED50 value, suppressing phencyclidine-elicited hyperactivity (schizophrenia model rat): 5.1 mg/kg; effect on conditioned avoidance response [6]: has the effect of suppressing
C[C@H](OC(=O)[C@H]1[C@@H]2C[C@H](F)[C@@](N)(C(=O)O)[C@@H]21)OC(=O)C12CC3CC(CC(C3)C1)C2.Cl | – | – | – | melting point: 164 °C (dec.)
Cl.NCC(=O)N[C@]1(C(=O)O)[C@H]2[C@@H](C[C@@H]1F)[C@@H]2C(=O)O [Ex. D-3, (1S,2S,3S,5R,6S)-2-(2-aminoacetamide)-3-fluorobicyclo[3.1.0]hexane-2,6-dicarboxylic acid hydrochloride] | <10 | 102 | 100 | –

Further lines, with some results ahead:

Percent generation (%) of Compound IV in human small intestine S9 [3] [%] | Compound's percent residue (%) pH 6.5 [4] [%] | Compound's percent residue (%) pH 1.2 [4] [%] | Structure (SMILES) | further results
20.9 | 102 | 103 | CSCC[C@H](N)C(=O)N[C@]1(C(=O)O)[C@H]2[C@@H](C[C@@H]1F)[C@@H]2C(=O)O.Cl [Ex. D-1, (1S,2S,3S,5R,6S)-2-((S)-2-amino-4-(methylthio)butanamide)-3-fluorobicyclo[3.1.0]hexane-2,6-dicarboxylic acid hydrochloride] | Concentration (ng/mL) of Compound IV in monkey plasma, After 2 hr ([2]; oral 4.92 μmol/kg, male cynomolgus monkeys (fed), 2 hr): 141 ng/mL; Concentration (ng/mL) of Compound IV in monkey plasma, After 4 hr ([2]; oral 4.92 μmol/kg, male cynomolgus monkeys (fed), 4 hr): 128 ng/mL
11.7 | 102 | 99 | CC(C)C[C@H](N)C(=O)N[C@]1(C(=O)O)[C@H]2[C@@H](C[C@@H]1F)[C@@H]2C(=O)O.Cl [Ex. D-7, (1S,2S,3S,5R,6S)-2-((S)-2-amino-4-methylpentanamide)-3-fluorobicyclo[3.1.0]hexane-2,6-dicarboxylic acid hydrochloride] | –
